Experimental data: ChEMBL document CHEMBL5380834, “Design, Synthesis, and Biological Evaluation of Androgen Receptor (AR) Antagonist-Heat Shock Protein 90 (Hsp90) Inhibitor Conjugates for Targeted Therapy of Castration-Resistant Prostate Cancer” (J Med Chem, 2023)
Values belong to the compound of their own block, whether it stands above or below them. Calls of active or inactive are those of the source. No cut-off for these calls is given here.

Columns and labels:
[1] = test system: Androgen receptor (Homo sapiens), P10275 [UNDEFINED MUTATION]; experiment: Induction of AR-V7 degradation in human 22Rv1 cells measured upto 24 hrs by Western blot analysis; assay type: cell-based; conditions: dose 1000.0 nM
Androgen receptor (Homo sapiens), P10275 [UNDEFINED MUTATION], sequence (P10275 whole entry, looked up, stated change not applied): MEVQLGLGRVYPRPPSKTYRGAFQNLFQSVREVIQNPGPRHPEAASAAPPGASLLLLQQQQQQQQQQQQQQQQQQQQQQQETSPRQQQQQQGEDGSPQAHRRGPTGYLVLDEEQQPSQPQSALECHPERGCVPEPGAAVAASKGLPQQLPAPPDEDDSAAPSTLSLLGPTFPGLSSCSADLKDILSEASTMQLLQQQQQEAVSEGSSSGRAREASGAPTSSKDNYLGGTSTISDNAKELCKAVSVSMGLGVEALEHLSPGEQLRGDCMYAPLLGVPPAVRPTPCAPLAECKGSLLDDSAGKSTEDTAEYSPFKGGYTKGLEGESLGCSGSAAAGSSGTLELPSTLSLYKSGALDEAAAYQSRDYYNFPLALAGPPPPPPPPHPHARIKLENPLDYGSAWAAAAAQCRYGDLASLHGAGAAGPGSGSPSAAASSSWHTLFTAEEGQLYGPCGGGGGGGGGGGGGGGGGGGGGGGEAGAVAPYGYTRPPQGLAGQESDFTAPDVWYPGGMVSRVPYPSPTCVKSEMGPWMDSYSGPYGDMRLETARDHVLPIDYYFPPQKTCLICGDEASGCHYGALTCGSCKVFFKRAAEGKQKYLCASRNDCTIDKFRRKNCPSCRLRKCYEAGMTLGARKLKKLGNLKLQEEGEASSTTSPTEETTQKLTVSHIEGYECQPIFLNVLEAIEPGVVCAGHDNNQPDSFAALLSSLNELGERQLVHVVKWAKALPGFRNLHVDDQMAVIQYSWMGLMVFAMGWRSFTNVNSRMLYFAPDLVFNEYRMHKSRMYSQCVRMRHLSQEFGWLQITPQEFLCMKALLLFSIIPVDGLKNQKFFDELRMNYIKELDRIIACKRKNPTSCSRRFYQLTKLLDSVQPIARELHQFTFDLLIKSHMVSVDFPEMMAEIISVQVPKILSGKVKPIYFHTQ

[2] = Drug uptake in human HEK293T cells assessed as increase in fluorescence at 1 uM incubated for 1 hr by DAPI staining based confocal microscopy; assay type: ADME, cell-based; conditions: hek-293t
[3] = test system: CWR22R; experiment: Antitumor activity against human 22Rv1 cells xenografted in BALB/c nude mouse assessed as downregulation of AR-FL level at 2.5 mg/kg, ip administered once every 4th day for 3 weeks; assay type: functional, organism-based
[4] = Drug uptake in human 22Rv1 cells assessed as increase in fluorescence at 1 uM incubated for 1 hr by DAPI staining based confocal microscopy; assay type: ADME, cell-based; conditions: cwr22r
[5] = test system: LNCaP; experiment: Cytotoxicity against AR-positive human LNCaP cells assessed as inhibition of cell growth incubated for 5 days in presence of AR agonist, R1881 in charcoal stripped serum by WST-1 assay; assay type: functional, cell-based; conditions: 120 h
[6] = Drug uptake in human RWPE-1 cells assessed as increase in fluorescence at 1 uM incubated for 1 hr by DAPI staining based confocal microscopy; assay type: ADME, cell-based; conditions: rwpe-1, 1 h
[7] = test system: Androgen receptor (Homo sapiens), P10275 [UNDEFINED MUTATION]; experiment: Induction of AR-V7 degradation in human 22Rv1 cells at 100 nM by Western blot analysis; assay type: cell-based; conditions: time <= 48.0 hrs, TDE = time-dependent effect
[8] = test system: CWR22R; experiment: Antitumor activity against human 22Rv1 cells xenografted in BALB/c nude mouse assessed as downregulation of AR-V7 level at 2.5 mg/kg, ip administered once every 4th day for 3 weeks; assay type: functional, organism-based
[9] = test system: CWR22R; experiment: Cytotoxicity against human 22Rv1 cells assessed as inhibition of cell growth incubated for 5 days in presence of AR agonist, R1881 by WST-1 assay; assay type: functional, cell-based; conditions: 22Rv1, 120 h
[10] = test system: CWR22R; experiment: Induction of apoptosis in human 22Rv1 cells assessed as increase in caspase-3 level at 1 uM measured after 48 hrs by Western blot analysis; assay type: functional, cell-based
[11] = test system: LNCaP; experiment: Induction of apoptosis in human LNCaP cells assessed as increase in PARP level at 1 uM measured after 48 hrs by Western blot analysis; assay type: functional, cell-based
[12] = test system: LNCaP; experiment: Induction of apoptosis in human LNCaP cells assessed as increase in caspase-3 level at 1 uM measured after 48 hrs by Western blot analysis; assay type: functional, cell-based
[13] = test system: CWR22R; experiment: Induction of apoptosis in human 22Rv1 cells assessed as increase in PARP level at 1 uM measured after 48 hrs by Western blot analysis; assay type: functional, cell-based
[14] = test system: CWR22R; experiment: Antitumor activity against human 22Rv1 cells xenografted in BALB/c nude mouse assessed as reduction in tumor growth at 5 mg/kg, ip administered once every 4th day for 3 weeks; assay type: functional, organism-based
[15] = test system: CWR22R; experiment: Antitumor activity against human 22Rv1 cells xenografted in BALB/c nude mouse assessed as reduction in tumor size at 5 mg/kg, ip administered once every 4th day for 3 weeks; assay type: functional, organism-based
[16] = Drug uptake in Lung of nude mouse xenografted with human 22Rv1 cells assessed as increase in fluorescence signal at 0.5 mg/kg, iv measured after 2 hrs by fluorescence imaging analysis; assay type: ADME, organism-based, CWR22R; conditions: in vivo
[17] = Drug uptake in tumor of nude mouse xenografted with human 22Rv1 cells assessed as increase in fluorescence signal at 0.5 mg/kg, iv measured after 2 hrs by fluorescence imaging analysis; assay type: ADME, organism-based, Neoplasm, CWR22R; conditions: in vivo
[18] = Drug uptake in HEK293T cells assessed as drug internalization at 1 uM incubated for 1 hr by DAPI staining based confocal microscopy; assay type: ADME, cell-based; conditions: human, hek-293t
[19] = Drug uptake in liver of nude mouse xenografted with human 22Rv1 cells assessed as increase in fluorescence signal at 0.5 mg/kg, iv measured after 2 hrs by fluorescence imaging analysis; assay type: ADME, organism-based, CWR22R; conditions: in vivo
[20] = Drug uptake in human 22Rv1 cells assessed as drug internalization at 1 uM incubated for 1 hr by DAPI staining based confocal microscopy; assay type: ADME, cell-based; conditions: cwr22r
[21] = Drug uptake in human RWPE-1 cells assessed as drug internalization at 1 uM incubated for 1 hr by DAPI staining based confocal microscopy; assay type: ADME, cell-based; conditions: rwpe-1, 1 h
[22] = Drug uptake in kidney of nude mouse xenografted with human 22Rv1 cells assessed as increase in fluorescence signal at 0.5 mg/kg, iv measured after 2 hrs by fluorescence imaging analysis; assay type: ADME, organism-based, CWR22R; conditions: in vivo

Activity [1]: Dose-Dependent Effect
Drug uptake [2]: Not Active
Drug uptake [4]: Not Active
Drug uptake [6]: Not Active
Activity [7]: Tde
SMILES: CC(C)c1cc(-c2n[nH]c(=O)n2-c2ccc(CN3CCN(C)CC3)cc2)c(O)cc1O
Activity [3]: inactive
IC50 [5]: 0.107 µM
Activity [8]: inactive

SMILES: CC(C)c1cc(-c2n[nH]c(=O)n2-c2ccc(CN3CCN(CC4CCN(C(=O)c5ccc(C(=O)N[C@H]6CC[C@H](Oc7ccc(C#N)c(Cl)c7)CC6)cc5)CC4)CC3)cc2)c(O)cc1O
IC50 [9]: 0.0655 µM
IC50 [5]: 0.112 µM

SMILES: CC(C)c1cc(-c2n[nH]c(=O)n2-c2ccc(CN3CCN(C(=O)CCCNC(=O)c4ccc(C(=O)N[C@H]5CC[C@H](Oc6ccc(C#N)c(Cl)c6)CC5)cc4)CC3)cc2)c(O)cc1O
IC50 [9]: > 1 µM
IC50 [5]: > 1 µM

SMILES: N#Cc1ccc(O[C@H]2CC[C@H](NC(=O)c3cncnc3)CC2)cc1Cl
Activity [10]: inactive
Activity [11]: inactive
Activity [12]: inactive
IC50 [5]: 0.153 µM
Activity [13]: inactive

Activity [7]: Tde
SMILES: COc1cc(OC)c(C(C)C)cc1-c1nn(C)c(=O)n1-c1ccc(CN2CCN(CC3CCN(CC4CCN(c5ncc(C(=O)N[C@H]6CC[C@H](Oc7ccc(C#N)c(Cl)c7)CC6)cn5)CC4)CC3)CC2)cc1
IC50 [9]: > 1 µM
Activity [14]: Active
IC50 [5]: > 1 µM

SMILES: CC(C)c1cc(-c2n[nH]c(=O)n2-c2ccc(CN3CCN(CC4CCN(c5ccc(C(=O)N[C@H]6CC[C@H](Oc7ccc(C#N)c(Cl)c7)CC6)cn5)CC4)CC3)cc2)c(O)cc1O
IC50 [9]: 0.0459 µM
IC50 [5]: 0.11 µM

SMILES: N#Cc1ccc(O[C@H]2CC[C@H](NC(=O)c3cccnn3)CC2)cc1Cl
Activity [10]: inactive
Activity [11]: inactive
Activity [12]: inactive
IC50 [5]: 0.336 µM
Activity [13]: inactive

SMILES: CC(C)c1cc(-c2n[nH]c(=O)n2-c2ccc(CN3CCN(C(=O)CCCCCCNC(=O)c4ccc(C(=O)N[C@H]5CC[C@H](Oc6ccc(C#N)c(Cl)c6)CC5)cc4)CC3)cc2)c(O)cc1O
IC50 [9]: > 1 µM
IC50 [5]: > 1 µM

SMILES: CC(C)c1cc(-c2n[nH]c(=O)n2-c2ccc(CN3CCN(CC4CCN(c5ncc(C(=O)N[C@H]6CC[C@H](Oc7ccc(C#N)c(C(F)(F)F)c7)CC6)cn5)CC4)CC3)cc2)c(O)cc1O
IC50 [9]: 0.0899 µM
IC50 [5]: 0.267 µM

SMILES: CC(C)c1cc(-c2n[nH]c(=O)n2-c2ccc(CN3CCN(CC4CCN(c5ncc(C(=O)N[C@H]6CC[C@H](Oc7ccc(C#N)c(Cl)c7)CC6)cn5)CC4)CC3)cc2)c(O)cc1O
IC50 [9]: 0.0343 µM
Activity [15]: Active
IC50 [5]: 0.0738 µM

SMILES: CC(C)c1cc(-c2n[nH]c(=O)n2-c2ccc(CN3CCN(C(=O)CCCCCNC(=O)c4ccc(C(=O)N[C@H]5CC[C@H](Oc6ccc(C#N)c(Cl)c6)CC5)cc4)CC3)cc2)c(O)cc1O
IC50 [9]: > 1 µM
IC50 [5]: > 1 µM

Drug uptake [16]: Not Active
Drug uptake [17]: Active
Drug uptake [18]: Not Active
Drug uptake [19]: Not Active
Drug uptake [20]: Active
Drug uptake [21]: Not Active
Drug uptake [22]: Not Active
SMILES: CC(C)c1cc(-c2n[nH]c(=O)n2-c2ccc(CN3CCN(C(=O)CCCCCN4/C(=C/C=C/C=C/C5=[N+](C)c6ccccc6C5(C)C)C(C)(C)c5ccccc54)CC3)cc2)c(O)cc1O

SMILES: CC(C)c1cc(-c2n[nH]c(=O)n2-c2ccc(CN3CCN(CC4CCN(c5ncc(C(=O)N[C@H]6C(C)(C)[C@H](Oc7ccc(C#N)c(Cl)c7)C6(C)C)cn5)CC4)CC3)cc2)c(O)cc1O
IC50 [9]: 0.212 µM
IC50 [5]: 0.188 µM
